# According to US20240238423A9, “TETRAHYDROISOQUINOLINE HETEROBIFUNCTIONAL BCL-XL DEGRADERS” (Treeline Biosciences, Inc., priority 2022, published 2024):
# Biological target: T1, Human BCL-XL protein (N-terminal HiBiT tagged BCL-XL in HT1080 cells) (Homo sapiens, UniProt Q07817)
# T1 construct: expressed in transfected cells; host or cells: HT-1080 (ATCC CCL-121), stably transduced with lentivirus pLV-UBC-N-HiBiT-BCL-XL-PGK-puro and selected with puromycin
# Experiment: HiBiT based degradation assay
# Format: cell-based
# Conditions: HT1080 cells expressing HiBiT-BCL-XL, 24 h; for Ymin (24 h): BCL-XL degradation normalized with DMSO control; for DC50: BCL-XL degradation, read-out: EC50 (24 h)
# Procedure, shortened: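 HT1080 cells stably transduced by lentivirus with N-terminally HiBiT-tagged human BCL-XL and kept under 1 μg/mL puromycin selection were seeded at three thousand cells per well in 40 μL RPMI 1640 into 384-well plates pre-spotted with compounds across a concentration range. Luminescence was read on a PHERAstar FSX, normalized to DMSO, and fitted with a four-parameter logistic model.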
# T1 sequence (Q07817 whole entry): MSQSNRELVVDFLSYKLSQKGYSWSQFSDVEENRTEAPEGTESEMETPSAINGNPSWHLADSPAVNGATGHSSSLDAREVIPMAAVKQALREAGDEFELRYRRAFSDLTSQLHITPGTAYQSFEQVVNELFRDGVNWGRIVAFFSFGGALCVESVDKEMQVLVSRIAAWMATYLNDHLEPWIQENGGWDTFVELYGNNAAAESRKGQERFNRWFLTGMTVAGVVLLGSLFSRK
Ymin (24 h),DC50 [nM],Structure (SMILES)
A (Ymin < 50%),< 100,"Cc1c(OCCC[C@@H]2CCN(CC(=O)Nc3ccc4c(C5CCC(=O)NC5=O)nn(C)c4c3)[C@@H](C)C2)cccc1-c1ccc(N2CCc3cccc(C(=O)Nc4nc5ccccc5s4)c3C2)nc1C(=O)O (stereo partly drawn) [Compound 343c, 6-(8-(benzo[d]thiazol-2-ylcarbamoyl)-3,4-dihydroisoquinolin-2(1H)-yl)-3-(3-(3-((2S,4R)-1-(2-((3-(2,6-dioxopiperidin-3-yl)-1-methyl-1H-indazol-6-yl)amino)-2-oxoethyl)-2-methylpiperidin-4-yl)propoxy)-2-methylphenyl)picolinic acid]"
A (Ymin < 50%),< 100,"Cc1c(OCCC[C@H]2CCN(CC(=O)Nc3ccc4c(C5CCC(=O)NC5=O)nn(C)c4c3)[C@@H](C)C2)cccc1-c1ccc(N2CCc3cccc(C(=O)Nc4nc5ccccc5s4)c3C2)nc1C(=O)O (stereo partly drawn) [Compound 343d, 6-[8-(1,3-benzothiazol-2-ylcarbamoyl)-3,4-dihydro-1H-isoquinolin-2-yl]-3-[3-[3-[(2S,4S)-1-[2-[[3-(2,6-dioxo-3-piperidyl)-1-methyl-indazol-6-yl]amino]-2-oxo-ethyl]-2-methyl-4-piperidyl]propoxy]-2-methyl-phenyl]pyridine-2-carboxylic acid]"
A (Ymin < 50%),< 100,"Cc1cc(OCCC[C@H]2CCN(CC(=O)Nc3ccc4c(C5CCC(=O)NC5=O)nn(C)c4c3)[C@@H](C)C2)ccc1-c1ccc(N2CCc3cccc(C(=O)Nc4nc5ccccc5s4)c3C2)nc1C(=O)O (stereo partly drawn) [Compound 344a, 6-[8-(1,3-benzothiazol-2-ylcarbamoyl)-3,4-dihydro-1H-isoquinolin-2-yl]-3-[4-[3-[(2S,4S)-1-[2-[[3-(2,6-dioxo-3-piperidyl)-1-methyl-indazol-6-yl]amino]-2-oxo-ethyl]-2-methyl-4-piperidyl]propoxy]-2-methyl-phenyl]pyridine-2-carboxylic acid]"
A (Ymin < 50%),< 100,"Cc1cc(OCCC[C@@H]2CCN(CC(=O)Nc3ccc4c(C5CCC(=O)NC5=O)nn(C)c4c3)[C@H](C)C2)ccc1-c1ccc(N2CCc3cccc(C(=O)Nc4nc5ccccc5s4)c3C2)nc1C(=O)O (stereo partly drawn) [Compound 344b, 6-[8-(1,3-benzothiazol-2-ylcarbamoyl)-3,4-dihydro-1H-isoquinolin-2-yl]-3-[4-[3-[(2R,4R)-1-[2-[[3-(2,6-dioxo-3-piperidyl)-1-methyl-indazol-6-yl]amino]-2-oxo-ethyl]-2-methyl-4-piperidyl]propoxy]-2-methyl-phenyl]pyridine-2-carboxylic acid]"
A (Ymin < 50%),< 100,"Cc1cc(OCCC[C@H]2CCN(CC(=O)Nc3ccc4c(C5CCC(=O)NC5=O)nn(C)c4c3)[C@H](C)C2)ccc1-c1ccc(N2CCc3cccc(C(=O)Nc4nc5ccccc5s4)c3C2)nc1C(=O)O (stereo partly drawn) [Compound 344c, 6-[8-(1,3-benzothiazol-2-ylcarbamoyl)-3,4-dihydro-1H-isoquinolin-2-yl]-3-[4-[3-[(2R,4S)-1-[2-[[3-(2,6-dioxo-3-piperidyl)-1-methyl-indazol-6-yl]amino]-2-oxo-ethyl]-2-methyl-4-piperidyl]propoxy]-2-methyl-phenyl]pyridine-2-carboxylic acid]"
A (Ymin < 50%),< 100,"Cc1cc(OCCC[C@@H]2CCN(CC(=O)Nc3ccc4c(C5CCC(=O)NC5=O)nn(C)c4c3)[C@@H](C)C2)ccc1-c1ccc(N2CCc3cccc(C(=O)Nc4nc5ccccc5s4)c3C2)nc1C(=O)O (stereo partly drawn) [Compound 344d, 6-(8-(benzo[d]thiazol-2-ylcarbamoyl)-3,4-dihydroisoquinolin-2(1H)-yl)-3-(4-(3-((2S,4R)-1-(2-((3-(2,6-dioxopiperidin-3-yl)-1-methyl-1H-indazol-6-yl)amino)-2-oxoethyl)-2-methylpiperidin-4-yl)propoxy)-2-methylphenyl)picolinic acid]"

# Second part, the molecule before the results:
Structure (SMILES),Ymin (24 h),DC50 [nM]
"Cc1c(O[C@H]2CC[C@H](CCCN3CCN(c4ccc5c(C6CCC(=O)NC6=O)nn(C)c5c4)CC3(C)C)CC2)cccc1-c1ccc(N2CCc3cccc(C(=O)Nc4nc5ccccc5s4)c3C2)nc1C(=O)O (stereo partly drawn) [Compound 336a, 6-(8-(benzo[d]thiazol-2-ylcarbamoyl)-3,4-dihydroisoquinolin-2(1H)-yl)-3-(3-(((1s,4r)-4-(3-(4-(3-(2,6-dioxopiperidin-3-yl)-1-methyl-1H-indazol-6-yl)-2,2-dimethylpiperazin-1-yl)propyl)cyclohexyl)oxy)-2-methylphenyl)picolinic acid]",A (Ymin < 50%),< 100
"Cc1c(O[C@H]2CC[C@H](CCCN3CCC(Oc4ccc5c(C6CCC(=O)NC6=O)nn(C)c5c4)CC3)CC2)cccc1-c1ccc(N2CCc3cccc(C(=O)Nc4nc5ccccc5s4)c3C2)nc1C(=O)O (stereo partly drawn) [Compound 337a, 6-(8-(benzo[d]thiazol-2-ylcarbamoyl)-3,4-dihydroisoquinolin-2(1H)-yl)-3-(3-(((1s,4r)-4-(3-(4-((3-(2,6-dioxopiperidin-3-yl)-1-methyl-1H-indazol-6-yl)oxy)piperidin-1-yl)propyl)cyclohexyl)oxy)-2-methylphenyl)picolinic acid]",A (Ymin < 50%),< 100
"Cc1c(O[C@H]2CC[C@H](CCCN3CCC(Oc4cccc5c(C6CCC(=O)NC6=O)nn(C)c45)CC3)CC2)cccc1-c1ccc(N2CCc3cccc(C(=O)Nc4nc5ccccc5s4)c3C2)nc1C(=O)O (stereo partly drawn) [Compound 338a, 6-(8-(benzo[d]thiazol-2-ylcarbamoyl)-3,4-dihydroisoquinolin-2(1H)-yl)-3-(3-(((1s,4r)-4-(3-(4-((3-(2,6-dioxopiperidin-3-yl)-1-methyl-1H-indazol-7-yl)oxy)piperidin-1-yl)propyl)cyclohexyl)oxy)-2-methylphenyl)picolinic acid]",A (Ymin < 50%),< 100
"Cc1c(O[C@H]2CC[C@H](CCCCN3CCN(c4ccc5c(C6CCC(=O)NC6=O)nn(C)c5c4)[C@@H](C(F)(F)F)C3)CC2)cccc1-c1ccc(N2CCc3cccc(C(=O)Nc4nc5ccccc5s4)c3C2)nc1C(=O)O (stereo partly drawn) [Compound 339a, 6-(8-(benzo[d]thiazol-2-ylcarbamoyl)-3,4-dihydroisoquinolin-2(1H)-yl)-3-(3-(((1s,4r)-4-(4-((3R)-4-(3-(2,6-dioxopiperidin-3-yl)-1-methyl-1H-indazol-6-yl)-3-(trifluoromethyl)piperazin-1-yl)butyl)cyclohexyl)oxy)-2-methylphenyl)picolinic acid]",B (50% ≤ Ymin < 70%),< 100
"Cc1c(O[C@H]2CC[C@H](CCC(C)(C)N3CCN(c4ccc5c(C6CCC(=O)NC6=O)nn(C)c5c4)CC3)CC2)cccc1-c1ccc(N2CCc3cccc(C(=O)Nc4nc5ccccc5s4)c3C2)nc1C(=O)O (stereo partly drawn) [Compound 340a, 6-(8-(benzo[d]thiazol-2-ylcarbamoyl)-3,4-dihydroisoquinolin-2(1H)-yl)-3-(3-(((1s,4r)-4-(3-(4-(3-(2,6-dioxopiperidin-3-yl)-1-methyl-1H-indazol-6-yl)piperazin-1-yl)-3-methylbutyl)cyclohexyl)oxy)-2-methylphenyl)picolinic acid]",A (Ymin < 50%),< 100
"Cc1c(O[C@H]2CC[C@H](CCC(C)(C)N3CCN(c4cccc5c(C6CCC(=O)NC6=O)nn(C)c45)CC3)CC2)cccc1-c1ccc(N2CCc3cccc(C(=O)Nc4nc5ccccc5s4)c3C2)nc1C(=O)O (stereo partly drawn) [Compound 341a, 6-(8-(benzo[d]thiazol-2-ylcarbamoyl)-3,4-dihydroisoquinolin-2(1H)-yl)-3-(3-(((is, 4r)-4-(3-(4-(3-(2,6-dioxopiperidin-3-yl)-1-methyl-1H-indazol-7-yl)piperazin-1-yl)-3-methylbutyl)cyclohexyl)oxy)-2-methylphenyl)picolinic acid]",A (Ymin < 50%),< 100
"Cc1c(O[C@H]2CC[C@H](CCCC(C)(C)N3CCN(c4cccc5c(C6CCC(=O)NC6=O)nn(C)c45)CC3)CC2)cccc1-c1ccc(N2CCc3cccc(C(=O)Nc4nc5ccccc5s4)c3C2)nc1C(=O)O (stereo partly drawn) [Compound 342a, 6-(8-(benzo[d]thiazol-2-ylcarbamoyl)-3,4-dihydroisoquinolin-2(1H)-yl)-3-(3-(((1s,4r)-4-(4-(4-(3-(2,6-dioxopiperidin-3-yl)-1-methyl-1H-indazol-7-yl)piperazin-1-yl)-4-methylpentyl)cyclohexyl)oxy)-2-methylphenyl)picolinic acid]",A (Ymin < 50%),< 100
"Cc1c(OCCC[C@@H]2CCN(CC(=O)Nc3ccc4c(C5CCC(=O)NC5=O)nn(C)c4c3)[C@H](C)C2)cccc1-c1ccc(N2CCc3cccc(C(=O)Nc4nc5ccccc5s4)c3C2)nc1C(=O)O (stereo partly drawn) [Compound 343a, 6-(8-(benzo[d]thiazol-2-ylcarbamoyl)-3,4-dihydroisoquinolin-2(1H)-yl)-3-(3-(3-((2R,4R)-1-(2-((3-(2,6-dioxopiperidin-3-yl)-1-methyl-1H-indazol-6-yl)amino)-2-oxoethyl)-2-methylpiperidin-4-yl)propoxy)-2-methylphenyl)picolinic acid]",A (Ymin < 50%),< 100
"Cc1c(OCCC[C@H]2CCN(CC(=O)Nc3ccc4c(C5CCC(=O)NC5=O)nn(C)c4c3)[C@H](C)C2)cccc1-c1ccc(N2CCc3cccc(C(=O)Nc4nc5ccccc5s4)c3C2)nc1C(=O)O (stereo partly drawn) [Compound 343b, 6-[8-(1,3-benzothiazol-2-ylcarbamoyl)-3,4-dihydro-1H-isoquinolin-2-yl]-3-[3-[3-[(2R,4S)-1-[2-[[3-(2,6-dioxo-3-piperidyl)-1-methyl-indazol-6-yl]amino]-2-oxo-ethyl]-2-methyl-4-piperidyl]propoxy]-2-methyl-phenyl]pyridine-2-carboxylic acid]",A (Ymin < 50%),< 100
